US20070059242A1, “METHODS TO IDENTIFY THERAPEUTIC AGENTS” (priority 2005, published 2007)

Experiments:
J774A.1 macrophages = assay: Uptake and localization in macrophages by fluorescence microscopy; format: cell-based, murine; settings: 50 μM dansyl derivative, 5 min to 1 h; not complexed with LDL
Description: J774A.1 cells were plated in 8-well chambered slides (Nalge Nunc International). Cells were gently washed twice with PBS, pH 7.4 before 5 min or 1 h exposure to 50 μM dansyl derivative of cholesterol ozonation product 5d or 5e, dansyl cholesterol derivative 9c or 9d, or dansyl hydrazine diluted in media without FCS (0.05% v/v final DMSO concentration). [drawing 28] Media was removed by aspiration and cells were fixed immediately in 95% ice cold methanol for 5 min. Cells were mounted in glycerol containing Antifade reagent (Molecular Probes). Fluorescence images were documented using DeltaVision Deconvolution microscope (API, Issaquah WA) equipped with a Photometrics CH350L liquid cooled CCD camera attached to an Olympus IX—70 inverted microscope. […] All images were deconvolved using constrained iterative algorithms (10 iterations) of DeltaVision software (softWoRx, v2.5). The deconvolved images were subsequently processed using softWoRx, v2.5.
In some experiments, murine macrophage RAW 264.7 (ECACC 91062702) cells were grown in RPMI (Gibco) with 10% FCS at 37° C. with 5% CO2. For fluorescence imaging, cells were incubated on cover slips in 6-well chambered plates (Costar) for 12 h, gently washed 3 times in PBS at pH 7.4, and incubated with 50 μM dansyl derivative of cholesterol ozonation product 5d or 5e, dansyl cholesterol derivative 9c or 9d, in RPMI with 10% FCS for 5, 15, 30, and 60 min. A solution of the dansyl derivative was then added in DMSO [final DMSO, 0.05% (v/v)]. Media was removed by aspiration, and cells were washed twice with PBS, followed by fixing in paraformaldehyde (3.7% in PBS) for 10 min. Cover slips were mounted in MOWIOL 4-88 (Calbiochem). Microscopy was performed using an inverted Zeiss Axioscope 2 Plus fluorescence microscope, and images were obtained with a Zeiss Axiocam digital camera using Axiovision software (version 3.1). The data were collected using a 63× oil immersion lens and DAPI filter (excitation 360/emission 460), and images were processed with Axiovision software and Adobe software (Photoshop 6.0).

[1] = tested on: U-937 monocytes on endothelial cell monolayers; assay: Monocyte-endothelial cell-cell adhesion by fluorescence spectroscopy; format: cell-based; settings: alone or in complex with LDL
E-selectin = assay: Endothelial adhesion molecule expression ELISA, E-selectin; format: cell-based, human; settings: for upregulation of E-selectin expression relative to vehicle control: HAAE-1, 4 h, 25 μM in the presence of LDL (100 μg/mL protein), or lipoprotein alone; for selectin (E-selectin) expression: HAAE-1, not complexed with LDL
Description: (§1) Endothelial cell surface adhesion molecule expression was measured by ELISA, using anti-human CD54 (ICAM-1), CD106 (VCAM-1) and CD62E (E-Selectin) antibodies (Leinco Technologies, Inc., St. Louis, Mo.). The ELISA method was modified from previously described procedures.
(§2) Cells were then incubated with antibodies to VCAM-1, E-selectin, or ICAM-1 diluted 1:400 in PBS containing 5% FCS at 37° C. for 30 min. Wells were washed two times with PBS, then incubated with horseradish peroxidase (HRP)-conjugated goat anti-mouse IgG (Southern Biotechnology Associates, Birmingham, Ala., USA) in PBS/5% FCS at 37° C. for 30 min. The wells were washed four times with PBS, then incubated with H2O2/3,3′,5,5′-tetramethyl-benzidine peroxidase substrate (Pierce Chemical, Rockford, Ill., USA) for 30 min in the dark. The reaction was stopped by adding 25 μl of 8 N H2SO4, and the plates read on a microplate reader, blanking on wells stained with only secondary antibody. Each assay was performed in triplicate and the data are reported as the mean±SEM as a percentage of the expression level of the vehicle. To study the effect of cholesterol ozonation product 5a concentration (5-50 μM) on E-selectin expression, the assay was performed in an identical fashion as described above, with each point being the mean±SEM of at least duplicate measurements.

[2] = tested on: WI-L2 human B-lymphocyte line; assay: LDH release cytotoxicity assay, WI-L2; format: cell-based; settings: Homo sapiens; WIL2; LDH release, 0-100 μM, 18 h
Description: Cytotoxicity assays. WI-L2 human B-lymphocyte line, HAAE-1 human abdominal aortic endothelial line, MH-S murine alveolar macrophage line, and J774A.1 murine tissue macrophage line were obtained from the ATCC. Human aortic endothelial cells (HAEC) and human vascular smooth muscle cells (VSMS) were obtained from Cambrex Bio Science. Jurkat E6-1T-lymphocytes were kindly provided by Dr. J. Kaye (The Scripps Research Institute). Cells were cultured in ATCC-recommended media with 10% fetal calf serum. Cells were incubated in a controlled atmosphere at 37° C., with 5 or 7% CO2. For lactate dehydrogenase (LDH) release assays, adherent cells were harvested either by addition of 0.05% trypsin/EDTA or by scraping. The cells obtained were seeded onto 96-well microtiter plates (25,000 cells/well) and allowed to recover for 24-48 h. Cells were washed gently and media replaced with fresh media containing 5% fetal calf serum. […] Cytotoxicity was then determined by measuring lactate dehydrogenase (LDH) release from cells in culture. […] 100% Cytotoxicity was defined as the maximum amount of LDH released by dead cells as shown by trypan blue exclusion, or the highest amount of LDH detected upon lysis of cells by 0.9% Triton X-100. The IC50 values were determined by comparison of the raw duplicate data for concentration versus cytotoxicity (%) to non-linear regression analysis (Hill plot) using Graphpad v3.0 software for Macintosh.
The following cell lines were employed in this study: a human B-lymphocyte (WI-L2) described in Levy et al., Cancer 22, 517 (1968); a T-lymphocyte cell line (Jurkat E6.1) described in Weiss et al., J. Immunol. 133, 123 (1984); a vascular smooth muscle cell line (VSMC) and an abdominal aorta endothelial (HAEC) cell line described in Folkman et al., Proc. Natl. Acad. Sci. U.S.A. 76, 5217 (1979); a murine tissue macrophage (J774A.1) described in Ralph et al., J. Exp. Med. 143, 1528 (1976); and an alveolar macrophage cell line (MH-S) described in Mbawuike et al., J. Leukoc. Biol. 46, 119 (1989).

THP-1 monocytes = assay: Monocyte morphology changes (differentiation into macrophages); format: cell-based, human; settings: for THP-1 cell adherence (differentiation into macrophages): 12.5 or 25 μM, 7 days
Description: THP-1 monocytes in suspension were plated in 8-well chambered slides. […] Media containing appropriate treatment compounds was replaced after 4 days. […]

VCAM-1 = assay: Endothelial adhesion molecule expression ELISA, VCAM-1; format: cell-based, human; settings: for integrin (VCAM-1) expression: HAAE-1, not complexed with LDL
Description: as §1, §2

Structure (SMILES)	uptake and localization in macrophages (J774A.1 macrophages)	adhesion of U-937 monocytes to endothelial cell monolayers, above that of LDL alone [1]	upregulation of E-selectin expression relative to vehicle control (E-selectin)	selectin (E-selectin) expression (E-selectin)	IC50 [2] [µM]	concentration that causes THP-1 cell differentiation (THP-1 monocytes) [µM]	THP-1 cell adherence (differentiation into macrophages) (THP-1 monocytes)	integrin (VCAM-1) expression (VCAM-1)	E-selectin levels (E-selectin; HAAE-1, 1.25 μM complexed with LDL) [fold]	E-selectin levels (E-selectin; HAAE-1, 50 μM complexed with LDL)	VCAM-1 levels (VCAM-1; HAAE-1, 25 μM in the presence of LDL, or lipoprotein alone)
CC(C)CCC[C@@H](C)[C@H]1CCC2C3C(CC[C@@]21C)[C@@]1(C)CC[C@H](O)C[C@@]1(O)[C@@H]3C=O (stereo partly drawn) [5a, 3β-Hydroxy-5β-hydroxy-B-norcholestane-6β-carboxaldehyde]	efficiently taken up by macrophages	no significant increase in equilibrium binding of monocytes to endothelial cells	1.8 fold	no effects	17.7 ± 2.3	25	began to adhere after 4 days	no effects	–	–	–
CC(C)CCC[C@@H](C)[C@H]1CCC2C(CC=O)C([C@@]3(C)CC[C@H](O)CC3=O)CC[C@@]21C (stereo partly drawn) [4a, 3β-Hydroxy-5-oxo-5,6-secocholestan-6-al]	efficiently taken up by macrophages	no significant increase in equilibrium binding of monocytes to endothelial cells	greater than 4 fold	no effects	10.9 ± 1.6	–	induced no cell adherence	no effects	2	about 8 fold	remain unchanged
